The text below walks through data of US20210189352A1, “ENHANCED REPROGRAMMING OF SOMATIC CELLS” (IMBA - INSTITUT FÜR MOLEKULARE BIOTECHNOLOGIE GMBH, priority 2017, published 2021).

This test has as its system murine embryonic stem cell clone AN3-12. The test is described as follows: Etoposide treatment of mouse ES cells (LD30 dose). The conditions noted are these: 8 day treatment, medium supplemented every day. Type of test: cell-based. As to the method:
A murine embryonic stem cell clone, derived from a derivative of HMSc2 termed AN3-12, with doxycycline inducible Cas9 (T3G-Cas9-IRES-mcherry PGK-GFP-rtTA) was used for this study. The following ES cell medium (ESCM) was used: 450 ml DMEM (Sigma D1152); 75 ml FCS (Invitrogen); 5.5 ml P/S (Sigma P0781); 5.5 ml NEAA (Sigma M7145); 5.5 ml LGlu (Sigma G7513); 5.5 ml NaPyr (Sigma S8636); 0.55 ml beta-mercapto ethanol (Merck 805740; dilute 10 μl bME in 2.85 ml PBS for a 1000× stock), 7.5 μl LIF (IMBA-MolBioService; 2 mg/ml). Cell culture-grade dishes were from Greiner (Greiner 15 cm 639160) and NUNC (all other formats, e.g. 10 cm dish Nunclon A Surface, cat no. 150350; 6-well Nunclon A Surface, cat no. 140675). Cells were trypsinized and replated every 2nd day and frozen in FCS:ESCM:DMSO=4.5:4.5:1. Cells were tested for mycoplasma every second week. Etoposide treatment: Medium was supplemented every day with 3.3 nM etoposide, an LD30 dose for 8 day treatment (Sigma E2600000), 1000× etoposide stocks dissolved in PBS-10% EtOH were used. For doxycycline treatment, medium was supplemented every day with 1 μg/ml (Sigma). Cells are tested for mycoplasma contamination every second week.

`COc1cc([C@@H]2c3cc4c(cc3[C@@H](O[C@@H]3O[C@@H]5CO[C@@H](C)O[C@H]5[C@H](O)[C@H]3O)[C@H]3COC(=O)[C@H]23)OCO4)cc(OC)c1O` [etoposide]: the LD30 dose was 3.3 nM.
